Reference: patent US4863902A, “Treatment of cancer” (Wakunaga Seiyaku Kabushiki Kaisha, priority 1985, dated 1989)

Legend:
[1] = system: MX-1 (human breast cancer); assay: Tumor weight of transplanted human breast cancer in nude mice; format: in vivo, mouse (human tumor xenograft); details: Table 4, adriamycin 10 mg/Kg, hEGF 100 μg/Kg on days 1, 8, 10 and 13, average ± standard error of 8 mice
Experimental: After BALB/c AJcl-nu strain male nude mice were preliminarily fed for one week in an aseptic clean rack maintained at a constant temperature, (23±0.5°
C.) and a constant humidity (60±5%), those which appeared to be healthy weighing around 20 g were provided for the present experiment in 8 mice per group. The mice employed in the present experiments hereinafter were fed under the above environment.
MX-1 (human breast cancer) was cut into sizes of about 1 mm square and transplanted subcutaneously on the right side of mouse axilla by a cell transplanting needle (trocker). 17 days after transplantation, the size of tumor, namely the longer diameter (a mm) and shorter diameter (b mm) were measured and the tumor weight was calculated by the following formula similarly as for Colon 26.
(§1) Tumor weight (mg)=ab^2 /2
(§2) Before carrying out experiments, tumor weights were measured immediately before administration of the compounds (the day 17 after tumor transplantation) and the mice were grouped into 3 groups by use of random numbers so that there may be no difference in average value of the tumor weights on initiation of experiments between the respective groups to make even the average values of tumor weights of the respective groups, and thereafter the compounds were administered to the respective groups.
Administration of the compounds was conducted 4 times as the total on the day 1, the day 8, the day 10 and the day 13. The test solutions were as shown below.

[2] = system: Colon adenocarcinoma 26 (mouse colon adenocarcinoma); assay: Tumor weight of transplanted Colon adenocarcinoma 26 in BALB/c mice; format: in vivo; details: for antitumor effect potentiating action, same experiment as Experimental Example 13: in combination with cyclophosphamide in place of 5-FU
Experimental: After BALB/c mice were preliminarily fed in a thermostat (23°±0.5° C.), humidistat (60±5%) room for 1 week, those which appear to be healthy weighing 18-20 g were provided for the present experiment in 6-12 mice per 1 group.
(§3) Colon adenocarcinoma 26 (mouse colon adenocarcinoma) was minced into pieces and about 0.1 to 0.2 ml thereof was transplanted subcutaneously on the right side of mouse abdomen by a cell transplanting needle (trocker). Six days after transplantation, the size of tumor, namely longer diameter (a mm) and shorter diameter (b mm) of tumor were measured and the tumor weight was calculated according to the formula shown below [Instruction 14 (NCI) 1980].
as §1
as §2, with “compounds” for “compounds (the day 17 after tumor transplantation)”
In this FIGURE, the axis of abscissa indicates the experimental days with the day of compound administration being the day 1, and the axis of ordinate indicates tumor cell growth ratio which is the ratio of the tumor weight after elapse of the respective days relative to the tumor weight on the day 1 as being 100%.

[3] = system: Colon adenocarcinoma 38 (mouse colon adenocarcinoma); assay: Tumor weight of transplanted Colon adenocarcinoma 38 in C57BL/6 mice; format: in vivo; details: for antitumor effect of (a) + (b) (quantity not headed; method of Experimental Example 4): Table 21
Experimental: as §3, with “38” for “26”, “Eleven” for “Six”
as §1
In the Table, days indicate the experimental days with the day of compound administration being as the day 1, and the tumor weight immediately before administration of compound of day 1 is made 100. The respective values show the average value ± standard error of case numbers of 10 to 20, in the Table, the marks of (*), * and *** indicate the statistical significance difference of the combined administration group relative to the 5-FU single administration group (the definition of P is as defined above).

[4] = system: mouse ovarian tumor M5076; assay: Tumor weight of solid tumor of mouse ovarian tumor in BDF1 mice; format: in vivo; details: used together with mytomycin C in place of cisplatin
Experimental: BDF1 male mice were employed. The feeding conditions were the same as in Experimental Example 1.
Mouse ovarian tumor M5076 was transplanted subcutaneously at the axialla of mouse in 1-2×10^6 cells per mouse. 12 days after transplantation, the size of tumor was measured according to the same method as in Experimental Example 1 (Colon 26) and the tumor weight was calculated.
The grouping operation on initiation of Experiments was conducted in the same manner as in Experimental Example 1. The compounds were administered in the same manner as in Experimental Example 9.
The experiment was carried out in the samme manner as in Experimental Examples 1, 7 and as in Experimental Example 17 for others.

receptor = receptor (Homo sapiens, UniProt P00533); details: J. Biol. Chem., 247, 7659 (1972); cited from earlier work
[5] = (a) Adriamycin, Mixed injection
[6] = (a) Adriamycin, Separate injection
[7] = (a) Cisplatin, Separate injection

| Compound | Tumor weight (day 1 = 100) ([1]; day 4) | Tumor weight (day 1 = 100) ([1]; day 7) | Tumor weight (day 1 = 100) ([1]; day 11) | Tumor weight (day 1 = 100) ([1]; day 14) | antitumor effect potentiating action, same experiment as Experimental Example 13 [2] | antitumor effect of (a) + (b) (quantity not headed; method of Experimental Example 4) [3, 5] | antitumor effect of (a) + (b) (quantity not headed; method of Experimental Example 4) [3, 6] | antitumor effect of (a) + (b) (quantity not headed; method of Experimental Example 4) ([3]; (a) Cisplatin, Mixed injection) | antitumor effect of (a) + (b) (quantity not headed; method of Experimental Example 4) [3, 7] | antitumor effect potentiation, same experiment as Experimental Example 17 [4] | antitumor action potentiating effect, same experiment as Experimental Example 8 ([2]; used in place of hEGF in combination with 5 mg/Kg cisplatin) | antitumor effect of (a) + (b) (quantity not headed; method of Experimental Example 4) ([3]; (a) Tegafur, Mixed injection) | antitumor effect of (a) + (b) (quantity not headed; method of Experimental Example 4) ([3]; (a) Tegafur, Separate injection) | tumor cell growth inhibition, same experiment as Experimental Example 4 ([3]; used in place of hEGF in combination with 5-FU) | tumor cell growth inhibition, same experiment as Experimental Example 14 ([3]; used in place of hEGF in combination with Tegafur) | binding ability of receptor or biological activity (receptor) |
| --- | --- | --- | --- | --- | --- | --- | --- | --- | --- | --- | --- | --- | --- | --- | --- | --- |
| COc1cccc2c1C(=O)c1c(O)c3c(c(O)c1C2=O)C[C@@](O)(C(=O)CO)C[C@@H]3O[C@H]1C[C@H](N)[C@H](O)[C@H](C)O1 [Adriamycin, adriamycin] | 162.0 ± 5.4 | 221.8 ± 20.1 | 291.8 ± 21.3 | 256.9 ± 12.7 | – | – | – | – | – | – | – | – | – | – | – | – |
| hEGF: human epidermal growth factor/urogastrone, 53 amino acid residues, three disulfide bonds | – | – | – | – | the same results | 103.1 | 98.5 | 88.8 | 80.3 | the same results | – | – | – | – | – | – |
| hEGF-II: fragment lacking two amino acid residues on the C-terminal side of hEGF (NSDSECPLSHDGYCLHDGVCMYIEALDKYACNCVVGYIGERCQYRDLKWWE; not fully specified; Epidermal growth factor; UniProt P01133 971-1021, looked up, fragment) | – | – | – | – | the same results | 105.6 | 103.3 | 102.3 | 96.6 | the same results | the same results | 47.8 | 42.8 | the same results | the same results | the same as hEGF |
